Laboratory results: PMC9030166, “Natural Phaeosphaeride A Derivatives Overcome Drug Resistance of Tumor Cells and Modulate Signaling Pathways” (Pharmaceuticals, 2022)

Assays:
K562 = experiment: MTT cytotoxicity, K562 chronic myeloid leukemia cells; format: cell-based; details: Homo sapiens
From the text: (§1) Cell cultures used in the work: adhesive cultures HBL-100 cells (cells of a normal mammary gland epithelium, immortalized by the SV40 virus and acquired tumorigenicity); MCF-7 breast cancer cells; PC-3 prostate adenocarcinoma cells; HCT-116 colorectal cancer cells; non-small cell lung cancer cells A549; human embryonic kidney cells HEK293; suspension cultures (NCI-H929 and RPMI8226 multiple myeloma cells), K562 chronic myeloid leukemia cells; THP-1 acute monocytic leukemia cells; and Jurkat acute T-cell leukemia cells. We also used several primary cultures of soft tissue sarcomas at 3–4passeges, kindly provided by T.I. Fetisov (The Ethics Committee of N.N. Blokhin NMRCO, protocol code 18-28-09095 and date of approval 28 September 2018).
(§2) Modifications of cell lines: K562/i-S9 is a clone obtained after transfection of K562 cells with the ABCB1 (MDR1) gene-encoding P-glycoprotein [36]. Cells HBL-100/Dox and K562/i-S9_Dox are cells obtained by long-term selection with increasing concentrations of doxorubicin (Sigma-Aldrich, St. Louis, MO, USA) from HBL-100 and K562/i-S9 cells, respectively. MCF-7, A594 cells, and primary cultures of soft tissue sarcomas were cultured in DMEM medium (PanEko, Russia), PC-3 and HCT-116 cells and all suspension cultures in RPMI1640 medium (PanEko, Russia) supplemented with 10% fetal bovine serum (GE Healthcare LifeSciences, USA), and gentamicin at a concentration of 40 μg/mL at 37 °C and 5% CO2.
(§3) Cells MCF-7, PC-3, A549, and HCT-116, and primary cultures of STSwere seeded in 96-well plates, 6 × 10^3 cells per well in 90 μL of culture medium. Suspension cultures were seeded at a concentration of 25 × 10^3 cells per well in 135 μL of medium. The test substances were dissolved in DMSO (Applichem, Council Bluffs, IA, USA) until a concentration of 1 × 10^−^2 M was obtained; for the subsequent dilution of the substances, a serum-free culture medium was used. The next day, for adhesive cultures, and on the same day, for suspension cultures, substances were added to the plates in a volume of 10 μL (adhesive cultures) and 15 μL (suspension cultures) per well at various concentrations; each concentration was added in 3–4 repetitions. The cells were cultured in the presence of substances for 48 h. Then, MTT reagent (PanEko, Moscow, Russia) was added to the wells at a concentration of 5 mg/mL in a volume of 20 μL per well. After 1.5–2 h, the medium with the reagent was removed, and the precipitate of the crystals of formazan was dissolved in 60 μL of DMSO. The optical density was determined using a Multiskan FC spectrophotometer (Thermo Scientific, Waltham, MA, USA) at a wavelength of 540 nm.
(§4) Based on the results of the experiments, a schedule was plotted of the dependence of the percentage of surviving cells (from control) on the concentration of the compound, and the sought concentration IC50 was calculated. The experiments were carried out in 3–4 times.

K562/i-S9 = experiment: MTT cytotoxicity, resistant K562/i-S9 cells (ABCB1 transfected); format: cell-based, human
From the text: (§5) At the next stage, the cytotoxic activity of compounds 1, 2, and 9 (Scheme 2) was investigated on several pairs of cell lines that differ in the expression of P-gp and the method by which they were obtained. K562/i-S9 cells are the result of the ABCB1 transfection into K562 cells, which increases P-gp expression, but should not seriously affect other signaling pathways that could lead to drug resistance. K562/i-S9_Dox cells were obtained from K562/i-S9 by selection with low concentrations of doxorubicin to increase P-gp expression. Subline HBL-100/Dox is a derivative of HBL-100 cells, obtained by long-term selection with increasing concentrations of doxorubicin, which led not only to an increase in P-gp expression, but also to a change in the signaling pathways in this subline. Cells of the K562/i-S9_Dox subline express the highest level of P-gp: 94.7% ± 2.3 (p < 0.0001 relative to K562, and p = 0.04 relative to K562/i-S9). In cells of the K562/i-S9 line, the expression of P-gp is 80% ± 8.2 (p < 0.0001 relative to K562). At 0.7% ± 0.5, P-gp is practically not expressed in K562 cells (Figure 1).
as §2, §3, §4

K562/i-S9_Dox = experiment: MTT cytotoxicity, resistant K562/i-S9_Dox cells (P-gp overexpression); format: cell-based, human
From the text: as §5, §2, §3, §4

HBL-100 = experiment: MTT cytotoxicity, sensitive HBL-100 cells; format: cell-based; details: Homo sapiens, 48 h
From the text: as §1, §3, §4

HBL-100/Dox = experiment: MTT cytotoxicity, resistant HBL-100/Dox cells; format: cell-based, human; details: for IC50: Homo sapiens, HBL-100, resistant version, MTT, 48 h
From the text: At the next stage, the cytotoxic activity of compounds 1, 2, and 9 (Scheme 2) was investigated on several pairs of cell lines that differ in the expression of P-gp and the method by which they were obtained. […] K562/i-S9_Dox cells were obtained from K562/i-S9 by selection with low concentrations of doxorubicin to increase P-gp expression.
as §2, §3
The experiments were carried out in 3–4 times.

HCT-116 = experiment: MTT cytotoxicity, HCT-116 colorectal cancer cells; format: cell-based, human; details: Homo sapiens, HCT-116, adhesive tumor culture, 48 h
From the text: as §1, §2, §3, §4

MCF-7 = experiment: MTT cytotoxicity, MCF-7 breast cancer cells; format: cell-based; details: Homo sapiens, MCF7, adhesive tumor culture, 48 h
From the text: as §1, §2, §3, §4

PC3 = experiment: MTT cytotoxicity, PC-3 prostate adenocarcinoma cells; format: cell-based, human; details: Homo sapiens, PC-3, adhesive tumor culture, 48 h
From the text: as §1, §2, §3, §4

A549 = experiment: MTT cytotoxicity, A549 non-small cell lung cancer cells; format: cell-based, human; details: Homo sapiens, A549, adhesive tumor culture, 48 h
From the text: as §1, §2, §3, §4

HEK293 = experiment: MTT cytotoxicity, human embryonic kidney cells HEK293; format: cell-based; details: 48 h
From the text: as §1, §3, §4

NCI-H929 = experiment: MTT cytotoxicity, NCI-H929 multiple myeloma cells; format: cell-based; details: Homo sapiens, suspension culture, 48 h
From the text: as §1, §2, §3, §4

THP-1 = experiment: MTT cytotoxicity, THP-1 acute monocytic leukemia cells; format: cell-based; details: Homo sapiens, suspension culture, 48 h
From the text: as §1, §2, §3, §4

RPMI8226 = experiment: MTT cytotoxicity, RPMI8226 multiple myeloma cells; format: cell-based; details: Homo sapiens, RPMI-8226, suspension culture, 48 h
From the text: as §1, §2, §3, §4

Jurkat = experiment: MTT cytotoxicity, Jurkat acute T-cell leukemia cells; format: cell-based; details: Homo sapiens, suspension culture, 48 h
From the text: as §1, §2, §3, §4

[1] = tested on: CMT № 1 (Extraskeletal Ewing’s Sarcoma); experiment: MTT cytotoxicity, primary culture of soft tissue sarcoma CMT № 1; format: cell-based; details: Homo sapiens, 48 h
From the text: (§6) It is believed that such cultures have a molecular profile that corresponds more with cells from the human body, in comparison with that of stable cultures of tumor cells (Table 3).
as §1, §2
as §3, with “Then, MTT reagent (PanEko, Moscow, Russia) was added to the wells at a concentration of 5 mg/mL in a volume of 20 μL per well. After 1.5–2 h, the medium with the reagent was removed, and the precipitate of the crystals of formazan was dissolved in 60 μL of DMSO.” left out
(§7) Based on the results of the experiments, a schedule was plotted of the dependence of the percentage of surviving cells (from control) on the concentration of the compound, and the sought concentration IC50 was calculated. […]

[2] = tested on: CMT № 2 (Malignant Schwannoma); experiment: MTT cytotoxicity, primary culture of soft tissue sarcoma CMT № 2; format: cell-based; details: Homo sapiens, 48 h
From the text: as §6, §1, §2
as §3, with “Then, MTT reagent (PanEko, Moscow, Russia) was added to the wells at a concentration of 5 mg/mL in a volume of 20 μL per well. After 1.5–2 h, the medium with the reagent was removed, and the precipitate of the crystals of formazan was dissolved in 60 μL of DMSO.” left out
as §7

[3] = tested on: CMT № 3 (Epithelial Sarcoma (Metastasis)); experiment: MTT cytotoxicity, primary culture of soft tissue sarcoma CMT № 3; format: cell-based; details: Homo sapiens, 48 h
From the text: as §6, §1, §2
as §3, with “Then, MTT reagent (PanEko, Moscow, Russia) was added to the wells at a concentration of 5 mg/mL in a volume of 20 μL per well. After 1.5–2 h, the medium with the reagent was removed, and the precipitate of the crystals of formazan was dissolved in 60 μL of DMSO.” left out
as §7

[4] = K562, suspension culture, 48 h (Table 2)

Structure (SMILES)	IC50 (HBL-100)	IC50 (HBL-100/Dox)	IC50 (HCT-116)	IC50 (MCF-7)	IC50 (PC3)	IC50 (A549)	IC50 (HEK293)	IC50 (NCI-H929)	IC50 (THP-1)	IC50 (K562; [4])	IC50 (RPMI8226)	IC50 (Jurkat)	other results
COc1cccc2c1C(=O)c1c(O)c3c(c(O)c1C2=O)C[C@@](O)(C(=O)CO)C[C@@H]3O[C@H]1C[C@H](N)[C@H](O)[C@H](C)O1 [Doxorubicin, doxorubicin, reference compound]	0.23 ± 0.03 µM	128 ± 7.4 µM											IC50 (K562; sensitive K562 cells (Table 4), 48 h): 0.36 ± 0.17 µM; IC50 (K562/i-S9; Homo sapiens, K562i/S9, resistant version, ABCB1 transfected, MTT, 48 h): 3.9 ± 1.6 µM; resistance of K562/i-S9 cells relative to K562 (K562/i-S9; ratio of IC50 values, Table 4): 11 times; IC50 (K562/i-S9_Dox; Homo sapiens, K562, resistant version, doxorubicin selected, MTT, 48 h): 10.3 ± 1.2 µM; resistance of K562/i-S9_Dox cells relative to K562 (K562/i-S9_Dox; ratio of IC50 values, Table 4): 28 times; resistance of K562/i-S9_Dox relative to K562/i-S9 (K562/i-S9_Dox; ratio of IC50 values, Table 4): 2.6 times; resistance of HBL-100/Dox cells relative to HBL-100 (HBL-100/Dox; ratio of IC50 values, Table 5): 556 times
COc1cc([C@@H]2c3cc4c(cc3[C@@H](O[C@@H]3O[C@@H]5CO[C@@H](C)O[C@H]5[C@H](O)[C@H]3O)[C@H]3COC(=O)[C@H]23)OCO4)cc(OC)c1O [Etoposide, etoposide, reference compound]	4.7 ± 0.9 µM	111 ± 8.3 µM	21 ± 9.9 µM	8.9 ± 2.3 µM	27.1 ± 3.2 µM	65.3 ± 5.2 µM	2 ± 0.5 µM	1.4 ± 0.5 µM	1.8 ± 0.2 µM	5.5 ± 3 µM	7.2 ± 1.9 µM	0.9 ± 0.3 µM	
C=C1C2=C(C(=O)N1OC)[C@@H](N(C)CCO)[C@@](C)(O)[C@H](CCCCC)O2 [Compound 8, (2S,3R,4R)-3-hydroxy-4-[(2-hydroxyethyl)(methyl)amino]-6-methoxy-3-methyl-7-methylene-2-pentyl-3,4,6,7-tetrahydropyrano[2,3-c]pyrrol-5(2H)-one]			7.5 ± 1 µM	1.8 ± 0.4 µM	3.3 ± 0.6 µM	16.3 ± 0.9 µM	3.8 ± 0.2 µM	0.9 ± 0.3 µM	1.8 ± 0.2 µM	3.4 ± 0.3 µM	1.5 ± 0.4 µM	1 ± 0.3 µM	IC50 [1]: 3.9 ± 0.8 µM; IC50 [2]: 2.3 ± 0.8 µM; IC50 [3]: 4.8 ± 0.5 µM
